From patent publication US20250270213A1, “PI3Ka INHIBITORS” (Synnovation Therapeutics, Inc., priority 2022, published 2025)

test system: T47D (PIK3CA H1047R) cells; assay: pS473 AKT assay with 2.5% FBS, T47D cells; format: cell-based; details: Homo sapiens, pSer473 AKT, DMEM with 2.5% FBS, 2 h treatment, read-out: T47D_IC50
Procedure, shortened: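 T47D (PIK3CA H1047R) cells were switched to DMEM with 2.5% FBS and exposed to compounds for 2 h. After paraformaldehyde fixation, pSer473 AKT was detected by in-cell ELISA (rabbit primary, HRP anti-rabbit secondary, chemiluminescence); IC50 values were fitted from the concentration series.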

IC50 [µM] | Structure (SMILES)
< 1 | CNC(=O)c1ccc(-c2nc(Cl)ccc2OC(C)c2cc(C)cc3c(=O)n(C)c4c(cnn4C4CCN(C)CC4)c23)cn1 (stereo not drawn) [Example 282, 5-[6-Chloro-3-[1-[4,7-dimethyl-3-(1-methyl-4-piperidyl)-5-oxo-pyrazolo[3,4-c]isoquinolin-9-yl]ethoxy]-2-pyridyl]-N-methyl-pyridine-2-carboxamide]
< 1 | CNC(=O)c1ccc(-c2nc(Cl)ccc2OC(C)c2cc(C)cc3c(=O)n(C)c4c(cnn4C4CCN(C(C)=O)CC4)c23)cn1 (stereo not drawn) [Example 283, 5-[3-[1-[3-(1-Acetyl-4-piperidyl)-4,7-dimethyl-5-oxo-pyrazolo[3,4-c]isoquinolin-9-yl]ethoxy]-6-chloro-2-pyridyl]-N-methyl-pyridine-2-carboxamide]
< 1 | Cc1cc(C(C)Nc2ccc(Cl)nc2-c2ncn(C)n2)c2c(c1)c(=O)n1c3c2cnn3C(CO)CC1 (stereo not drawn) [Example 284, 10-(1-((6-Chloro-2-(1-methyl-1H-1,2,4-triazol-3-yl)pyridin-3-yl)amino)ethyl)-3-(hydroxymethyl)-8-methyl-4,5-dihydro-3H,6H-2,2a,5a-triazaaceanthrylen-6-one]
< 1 | Cc1cc(C(C)Nc2ccc(Cl)nc2-c2nnn(C)n2)c2c(c1)c(=O)n1c3c2cnn3C(CO)CC1 (stereo not drawn) [Example 285, 10-(1-((6-chloro-2-(2-methyl-2H-tetrazol-5-yl)pyridin-3-yl)amino)ethyl)-3-(hydroxymethyl)-8-methyl-4,5-dihydro-3H,6H-2,2a,5a-triazaaceanthrylen-6-one]
< 1 | Cc1cc(C(C)Nc2ccc(Cl)nc2-c2nnco2)c2c(c1)c(=O)n1c3c2cnn3C(CO)CC1 (stereo not drawn) [Example 286, 10-(1-((6-chloro-2-(1,3,4-oxadiazol-2-yl)pyridin-3-yl)amino)ethyl)-3-(hydroxymethyl)-8-methyl-4,5-dihydro-3H,6H-2,2a,5a-triazaaceanthrylen-6-one]
< 1 | Cc1cc(C(C)Nc2ccc(Cl)nc2-c2cnn(C)c2)c2c(c1)c(=O)n1c3c2cnn3C(CO)CC1 (stereo not drawn) [Example 287, 10-(1-((6-chloro-2-(1-methyl-1H-pyrazol-4-yl)pyridin-3-yl)amino)ethyl)-3-(hydroxymethyl)-8-methyl-4,5-dihydro-3H,6H-2,2a,5a-triazaaceanthrylen-6-one]
< 1 | Cc1cc(C(C)Nc2ccc(Cl)nc2-c2c[nH]nc2C)c2c(c1)c(=O)n1c3c2cnn3C(CO)CC1 (stereo not drawn) [Example 288, 10-(1-((6-chloro-2-(3-methyl-1H-pyrazol-4-yl)pyridin-3-yl)amino)ethyl)-3-(hydroxymethyl)-8-methyl-4,5-dihydro-3H,6H-2,2a,5a-triazaaceanthrylen-6-one]
< 1 | Cc1cc(C(C)Nc2ccc(Cl)nc2-c2ccc(=O)n(C)c2)c2c(c1)c(=O)n1c3c2cnn3C(CO)CC1 (stereo not drawn) [Example 289, 10-(1-((6-chloro-1′-methyl-6′-oxo-1′,6′-dihydro-[2,3′-bipyridin]-3-yl)amino)ethyl)-3-(hydroxymethyl)-8-methyl-4,5-dihydro-3H,6H-2,2a,5a-triazaaceanthrylen-6-one]
< 1 | Cc1cc(C(C)Nc2ccc(Cl)nc2-c2ncn(C)n2)c2c(c1)c(=O)n1c3c2cnn3C(CN(C)C)CC1 (stereo not drawn) [Example 290, 10-(1-((6-Chloro-2-(1-methyl-1H-1,2,4-triazol-3-yl)pyridin-3-yl)amino)ethyl)-3-((dimethylamino)methyl)-8-methyl-4,5-dihydro-3H,6H-2,2a,5a-triazaaceanthrylen-6-one]
